Values after ≈ are worked out from the molar mass of the structure shown.
Columns and labels:
A549 = experiment: Cytotoxicity against human A549 cells by MTT method; assay type: functional; conditions: read-out: ED50 (the source's name)
P388 = experiment: Cytotoxicity against mouse P388 cells by MTT method; assay type: functional; conditions: read-out: ED50 (the source's name)

Compound | EC50 (A549) [µg/mL] | EC50 (P388) [µg/mL]
C=C(C)[C@H]1[C@@H]2C[C@@H](C)CC[C@H]2C(C)=C[C@H]1O [XENITORIN A] | 0.79 (≈ 3.59 µM) | 
C=C(C)[C@@H]1C(=O)C=C(C)[C@@H]2CC[C@H](C)C[C@@H]12 [XENITORIN B] | > 50 | > 50
C=C(C)[C@@H]1C=C[C@](C)(O)[C@@H]2CC[C@H](C)C[C@H]21 [XENITORIN C] | > 50 | > 50
C=C(C)[C@@H]1[C@H](O)[C@@H]2O[C@]2(C)[C@@H]2CC[C@H](C)C[C@@H]12 [XENITORIN D] | > 50 | > 50
C=C(C)[C@@H]1C(=O)C=C(C)[C@]2(O)CC[C@H](C)C[C@@H]12 [XENITORIN E] | 1.86 (≈ 7.94 µM) | 3.69 (≈ 15.7 µM)
C=C(C)[C@@H]1C(=O)C=C(C)[C@@]2(O)CC[C@H](C)C[C@@H]12 [XENITORIN F] | > 50 | > 50

Reference: ChEMBL document CHEMBL1137815, “New cadinene sesquiterpenoids from the Formosan soft coral Xenia puerto-galerae” (2002)
